Experiments:
cdk4/D = cdk4/D (Homo sapiens, UniProt P11802); test: Cyclin-Dependent Kinase 4 (cdk4) Assay; format: biochemical; conditions: read-out: cdk4/D IC50
Cdk5/p25 = Cdk5/p25 (Homo sapiens, UniProt Q00535); test: Cyclin-Dependent Kinase 5 High Throughput Screening (cdk5-HTS) Assay; format: biochemical; conditions: high throughput screen
Procedure, shortened: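 IC50 determined from 33P incorporation into GST-RbCOOH captured on glutathione plates and read by scintillation counting. Reaction: 1.0 μg/mL Cdk5/p25, 20 μM [γ33P]ATP, pH 7.4 Tris buffer with MgCl2 and DTT, 30 min at room temperature, stopped with EDTA.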

cdk2/cyclinE = cdk2/cyclinE (Homo sapiens, UniProt P24941); test: Cyclin-Dependent Kinase Assay cdk2/cyclinE; conditions: cdk2/E IC50
cdk2/cyclinA = cdk2/cyclinA (Homo sapiens, UniProt P24941); test: Cyclin-Dependent Kinase Assay cdk2/cyclinA; conditions: cdk2/A IC50
cdc2/cyclinB = cdc2/cyclinB (Homo sapiens, UniProt P06493); test: Cyclin-Dependent Kinase Assay cdc2/cyclinB
Sequence of cdc2/cyclinB (P06493 whole entry): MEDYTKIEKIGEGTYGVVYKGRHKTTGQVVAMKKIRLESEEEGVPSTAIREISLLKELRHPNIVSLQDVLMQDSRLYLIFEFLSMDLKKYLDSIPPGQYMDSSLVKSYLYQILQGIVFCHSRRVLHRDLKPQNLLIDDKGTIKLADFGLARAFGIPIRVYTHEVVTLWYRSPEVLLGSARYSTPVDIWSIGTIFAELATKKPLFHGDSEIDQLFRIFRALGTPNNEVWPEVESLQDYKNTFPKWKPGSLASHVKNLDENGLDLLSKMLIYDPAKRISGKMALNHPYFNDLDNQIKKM
Sequence of cdc2/cyclinB (P14635 whole entry, further chain): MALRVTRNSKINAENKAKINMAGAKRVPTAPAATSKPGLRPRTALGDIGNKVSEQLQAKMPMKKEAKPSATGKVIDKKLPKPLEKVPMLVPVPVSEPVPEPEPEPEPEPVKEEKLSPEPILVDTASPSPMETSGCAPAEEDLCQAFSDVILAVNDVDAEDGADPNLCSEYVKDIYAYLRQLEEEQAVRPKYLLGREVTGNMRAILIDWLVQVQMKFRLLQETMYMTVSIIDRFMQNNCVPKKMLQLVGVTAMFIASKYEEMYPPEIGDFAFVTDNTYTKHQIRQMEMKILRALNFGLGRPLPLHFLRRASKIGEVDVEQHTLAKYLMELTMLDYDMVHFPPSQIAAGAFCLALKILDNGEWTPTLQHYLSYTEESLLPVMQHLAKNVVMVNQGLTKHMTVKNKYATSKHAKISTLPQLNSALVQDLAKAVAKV

Sequence of cdk4/D (P11802 whole entry): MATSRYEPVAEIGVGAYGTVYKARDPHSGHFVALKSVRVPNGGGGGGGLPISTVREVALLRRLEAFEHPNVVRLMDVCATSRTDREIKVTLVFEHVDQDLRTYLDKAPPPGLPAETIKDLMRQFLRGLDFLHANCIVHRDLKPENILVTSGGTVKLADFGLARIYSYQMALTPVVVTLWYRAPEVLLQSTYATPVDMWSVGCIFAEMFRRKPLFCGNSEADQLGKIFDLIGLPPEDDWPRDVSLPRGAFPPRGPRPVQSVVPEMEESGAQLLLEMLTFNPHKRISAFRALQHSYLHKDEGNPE
Sequence of cdk4/D (P24385 whole entry, further chain): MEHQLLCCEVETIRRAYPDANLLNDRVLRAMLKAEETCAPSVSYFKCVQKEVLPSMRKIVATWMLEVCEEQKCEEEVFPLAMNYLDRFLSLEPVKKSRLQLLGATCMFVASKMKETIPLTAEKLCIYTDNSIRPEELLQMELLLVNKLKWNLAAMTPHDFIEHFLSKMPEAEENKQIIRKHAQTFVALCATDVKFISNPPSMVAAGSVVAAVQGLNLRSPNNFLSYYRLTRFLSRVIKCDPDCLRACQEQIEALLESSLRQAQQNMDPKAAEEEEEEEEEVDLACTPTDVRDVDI

SMILES	IC50 (cdk4/D)	IC50 (Cdk5/p25)	IC50 (cdk2/cyclinE)	IC50 (cdk2/cyclinA)	IC50 (cdc2/cyclinB)
CC(C)n1c(=O)ccc2cnc(Nc3ccc(C(F)(F)F)cc3)nc21 [Example 443, 8-Isopropyl-2-(4-trifluoromethyl-phenylamino)-8H-pyrido[2,3-d]pyrimidin-7-one]	320 nM	71 nM	170 nM	200 nM	520 nM
CC(C)n1c(=O)ccc2cnc(Nc3ccc(OC(F)(F)F)cc3)nc21 [Example 444, 8-Isopropyl-2-(4-trifluoromethoxy-phenylamino)-8H-pyrido[2,3-d]pyrimidin-7-one]	360 nM	63 nM	710 nM	75 nM	530 nM
CCC(C)n1c(=O)ccc2cnc(Nc3ccccc3)nc21 (stereo not shown) [Example 446, 8-sec-Butyl-2-phenylamino-8H-pyrido[2,3-d]pyrimidin-7-one]	168 nM	74.5 nM	177 nM	215 nM	340 nM
CCC(C)n1c(=O)ccc2cnc(Nc3ccc(NC(=O)OC(C)(C)C)cc3)nc21 (stereo not shown) [Example 450, [4-(8-sec-Butyl-7-oxo-7,8-dihydro-pyrido[2,3-d]pyrimidin-2-ylamino)-phenyl]-carbamic acid tert-butyl ester]	113 nM	64.5 nM	130 nM	265 nM	140 nM
CCC(C)n1c(=O)ccc2cnc(Nc3ccc(O)cc3F)nc21 (stereo not shown) [Example 451, 8-sec-Butyl-2-(2-fluoro-4-hydroxy-phenylamino)-8H-pyrido[2,3-d]pyrimidin-7-one]	450 nM	133 nM	240 nM	555 nM	590 nM
CCC(C)n1c(=O)ccc2cnc(Nc3cc(OC)c(OC)c(OC)c3)nc21 (stereo not shown) [Example 457, 8-sec-Butyl-2-(3,4,5-trimethoxy-phenylamino)-8H-pyrido[2,3-d]pyrimidin-7-one]	2400 nM	280 nM	250 nM	760 nM	340 nM
CCC(C)n1c(=O)ccc2cnc(Nc3cc([N+](=O)[O-])ccc3F)nc21 (stereo not shown) [Example 459, 8-sec-Butyl-2-(2-fluoro-5-nitro-phenylamino)-8H-pyrido[2,3-d]pyrimidin-7-one]	216 nM	196 nM	316 nM	1200 nM	491 nM
CCC(C)n1c(=O)ccc2cnc(Nc3cc(OC)cc(C(F)(F)F)c3)nc21 (stereo not shown) [Example 463, 8-sec-Butyl-2-(3-methoxy-5-trifluoromethyl-phenylamino)-8H-pyrido[2,3-d]pyrimidin-7-one]	250 nM	180 nM	660 nM	2000 nM	300 nM
CCC(C)n1c(=O)ccc2cnc(Nc3cccc(S(N)(=O)=O)c3)nc21 (stereo not shown) [Example 469, 3-(8-sec-Butyl-7-oxo-7,8-dihydro-pyrido[2,3-d]pyrimidin-2-ylamino)-benzenesulfonamide]	30 nM	9.6 nM	46 nM	240 nM	90 nM
CCC(C)n1c(=O)ccc2cnc(Nc3ccc4c(c3)CCCC4=O)nc21 (stereo not shown) [Example 470, 8-sec-Butyl-2-(5-oxo-5,6,7,8-tetrahydro-naphthalen-2-ylamino)-8H-pyrido[2,3-d]pyrimidin-7-one]	110 nM	6.1 nM	50 nM	150 nM	67 nM
CCC(C)n1c(=O)ccc2cnc(Nc3ccc(N(C)C(C)=O)cc3)nc21 (stereo not shown) [Example 471, N-[4-(8-sec-Butyl-7-oxo-7,8-dihydro-pyrido[2,3-d]pyrimidin-2-ylamino)-phenyl]-N-methyl-acetamide]	120 nM	49 nM	220 nM	530 nM	340 nM
CCC(C)n1c(=O)ccc2cnc(Nc3cc(F)cc(F)c3)nc21 (stereo not shown) [Example 472, 8-sec-Butyl-2-(3,5-difluoro-phenylamino)-8H-pyrido[2,3-d]pyrimidin-7-one]	370 nM	52 nM	200 nM	150 nM	250 nM

Further lines, results first:

IC50 (cdk4/D)	IC50 (Cdk5/p25)	IC50 (cdk2/cyclinE)	IC50 (cdk2/cyclinA)	IC50 (cdc2/cyclinB)	SMILES
44.5 nM	19 nM	60.7 nM	145 nM	89.5 nM	CCC(C)n1c(=O)ccc2cnc(Nc3ccc4[nH]ccc4c3)nc21 (stereo not shown) [Example 447, 8-sec-Butyl-2-(1H-indol-5-ylamino)-8H-pyrido[2,3-d]pyrimidin-7-one]
46 nM	8.5 nM	20 nM	52 nM	26.5 nM	CCC(C)n1c(=O)ccc2cnc(Nc3ccc4[nH]ncc4c3)nc21 (stereo not shown) [Example 448, 8-sec-Butyl-2-(1H-indazol-5-ylamino)-8H-pyrido[2,3-d]pyrimidin-7-one]
128 nM	7.8 nM	17.3 nM	41 nM	77.5 nM	CCC(C)n1c(=O)ccc2cnc(Nc3ccc4[nH]nnc4c3)nc21 (stereo not shown) [Example 449, 2-(1H-Benzotriazol-5-ylamino)-8-sec-butyl-8H-pyrido[2,3-d]pyrimidin-7-one]
114 nM	13 nM	22 nM	40 nM	25.5 nM	CCC(C)n1c(=O)ccc2cnc(Nc3ccc(O)c(Cl)c3)nc21 (stereo not shown) [Example 452, 8-sec-Butyl-2-(3-chloro-4-hydroxy-phenylamino)-8H-pyrido[2,3-d]pyrimidin-7-one]
330 nM	37 nM	52.7 nM	105 nM	51.5 nM	CCC(C)n1c(=O)ccc2cnc(Nc3cccc([N+](=O)[O-])c3)nc21 (stereo not shown) [Example 453, 8-sec-Butyl-2-(3-nitro-phenylamino)-8H-pyrido[2,3-d]pyrimidin-7-one]
262 nM	21.5 nM	68.3 nM	115 nM	59.5 nM	CCC(C)n1c(=O)ccc2cnc(Nc3ccc(OC)c(OC)c3)nc21 (stereo not shown) [Example 454, 8-sec-Butyl-2-(3,4-dimethoxy-phenylamino)-8H-pyrido[2,3-d]pyrimidin-7-one]
110 nM	50.5 nM	463 nM	170 nM	98.5 nM	CCC(C)n1c(=O)ccc2cnc(Nc3ccc(OC)cc3)nc21 (stereo not shown) [Example 455, 8-sec-Butyl-2-(4-methoxy-phenylamino)-8H-pyrido[2,3-d]pyrimidin-7-one]
130 nM	25 nM	110 nM	310 nM	130 nM	CCC(C)n1c(=O)ccc2cnc(Nc3ccc(Cl)c(C)c3)nc21 (stereo not shown) [Example 456, 8-sec-Butyl-2-(4-chloro-3-methyl-phenylamino)-8H-pyrido[2,3-d]pyrimidin-7-one]
1700 nM	29 nM	100 nM	280 nM	150 nM	CCC(C)n1c(=O)ccc2cnc(Nc3ccc(F)c(C(F)(F)F)c3)nc21 (stereo not shown) [Example 458, 8-sec-Butyl-2-(4-fluoro-3-trifluoromethyl-phenylamino)-8H-pyrido[2,3-d]pyrimidin-7-one]
160 nM	36 nM	73 nM	260 nM	140 nM	CCC(C)n1c(=O)ccc2cnc(Nc3ccc(F)c(Cl)c3)nc21 (stereo not shown) [Example 460, 8-sec-Butyl-2-(3-chloro-4-fluoro-phenylamino)-8H-pyrido[2,3-d]pyrimidin-7-one]
550 nM	82 nM	780 nM	1800 nM	460 nM	CCC(C)n1c(=O)ccc2cnc(Nc3cc(Cl)c(Cl)c(Cl)c3)nc21 (stereo not shown) [Example 461, 8-sec-Butyl-2-(3,4,5-trichloro-phenylamino)-8H-pyrido[2,3-d]pyrimidin-7-one]
150 nM	17 nM	130 nM	310 nM	170 nM	CCC(C)n1c(=O)ccc2cnc(Nc3ccc(I)c(Cl)c3)nc21 (stereo not shown) [Example 464, 8-sec-Butyl-2-(3-chloro-4-iodo-phenylamino)-8H-pyrido[2,3-d]pyrimidin-7-one]
100 nM	8.8 nM	56 nM	260 nM	76 nM	CCC(C)n1c(=O)ccc2cnc(Nc3ccc(C)c(I)c3)nc21 (stereo not shown) [Example 465]
96 nM	8 nM	97 nM	270 nM	190 nM	CCC(C)n1c(=O)ccc2cnc(Nc3ccc(C)c(Cl)c3)nc21 (stereo not shown) [Example 467, 8-sec-Butyl-2-(3-chloro-4-methyl-phenylamino)-8H-pyrido[2,3-d]pyrimidin-7-one]
950 nM	26.5 nM	330 nM	530 nM	340 nM	CCC(C)n1c(=O)ccc2cnc(Nc3ccc(Cl)c(C(F)(F)F)c3)nc21 (stereo not shown) [Example 468, 8-sec-Butyl-2-(4-chloro-3-trifluoromethyl-phenylamino)-8H-pyrido[2,3-d]pyrimidin-7-one]
210 nM	41 nM	140 nM	110 nM	240 nM	CCC(C)n1c(=O)ccc2cnc(Nc3ccc(C#N)cc3)nc21 (stereo not shown) [Example 474, 4-(8-sec-Butyl-7-oxo-7,8-dihydro-pyrido[2,3-d]pyrimidin-2-ylamino)-benzonitrile]
1400 nM	480 nM	820 nM	1500 nM	1100 nM	CCC(C)n1c(=O)ccc2cnc(Nc3ccc(F)c([N+](=O)[O-])c3)nc21 (stereo not shown) [Example 475, 8-sec-Butyl-2-(4-fluoro-3-nitro-phenylamino)-8H-pyrido[2,3-d]pyrimidin-7-one]

From patent publication US20040224958A1, “Pyridopyrimidinone derivatives for treatment of neurodegenerative disease” (priority 2000, published 2004)
